Measurements as given in PMC6981391, “The Selective Class IIa Histone Deacetylase Inhibitor TMP195 Resensitizes ABCB1- and ABCG2-Overexpressing Multidrug-Resistant Cancer Cells to Cytotoxic Anticancer Drugs” (International Journal of Molecular Sciences, 2019).

What was measured:
ABCB1 = biological target: T1, ABCB1 (Homo sapiens, UniProt P08183); test: stimulation of vanadate-sensitive ATPase activity in membrane vesicles (endpoint Pi assay); also inhibits calcein-AM efflux in MDR19-HEK293 and KB-V-1 cells; format: biochemical
T1 construct: membrane vesicles from High-Five insect cells infected with recombinant baculovirus containing ABCB1
T1 sequence (P08183 whole entry): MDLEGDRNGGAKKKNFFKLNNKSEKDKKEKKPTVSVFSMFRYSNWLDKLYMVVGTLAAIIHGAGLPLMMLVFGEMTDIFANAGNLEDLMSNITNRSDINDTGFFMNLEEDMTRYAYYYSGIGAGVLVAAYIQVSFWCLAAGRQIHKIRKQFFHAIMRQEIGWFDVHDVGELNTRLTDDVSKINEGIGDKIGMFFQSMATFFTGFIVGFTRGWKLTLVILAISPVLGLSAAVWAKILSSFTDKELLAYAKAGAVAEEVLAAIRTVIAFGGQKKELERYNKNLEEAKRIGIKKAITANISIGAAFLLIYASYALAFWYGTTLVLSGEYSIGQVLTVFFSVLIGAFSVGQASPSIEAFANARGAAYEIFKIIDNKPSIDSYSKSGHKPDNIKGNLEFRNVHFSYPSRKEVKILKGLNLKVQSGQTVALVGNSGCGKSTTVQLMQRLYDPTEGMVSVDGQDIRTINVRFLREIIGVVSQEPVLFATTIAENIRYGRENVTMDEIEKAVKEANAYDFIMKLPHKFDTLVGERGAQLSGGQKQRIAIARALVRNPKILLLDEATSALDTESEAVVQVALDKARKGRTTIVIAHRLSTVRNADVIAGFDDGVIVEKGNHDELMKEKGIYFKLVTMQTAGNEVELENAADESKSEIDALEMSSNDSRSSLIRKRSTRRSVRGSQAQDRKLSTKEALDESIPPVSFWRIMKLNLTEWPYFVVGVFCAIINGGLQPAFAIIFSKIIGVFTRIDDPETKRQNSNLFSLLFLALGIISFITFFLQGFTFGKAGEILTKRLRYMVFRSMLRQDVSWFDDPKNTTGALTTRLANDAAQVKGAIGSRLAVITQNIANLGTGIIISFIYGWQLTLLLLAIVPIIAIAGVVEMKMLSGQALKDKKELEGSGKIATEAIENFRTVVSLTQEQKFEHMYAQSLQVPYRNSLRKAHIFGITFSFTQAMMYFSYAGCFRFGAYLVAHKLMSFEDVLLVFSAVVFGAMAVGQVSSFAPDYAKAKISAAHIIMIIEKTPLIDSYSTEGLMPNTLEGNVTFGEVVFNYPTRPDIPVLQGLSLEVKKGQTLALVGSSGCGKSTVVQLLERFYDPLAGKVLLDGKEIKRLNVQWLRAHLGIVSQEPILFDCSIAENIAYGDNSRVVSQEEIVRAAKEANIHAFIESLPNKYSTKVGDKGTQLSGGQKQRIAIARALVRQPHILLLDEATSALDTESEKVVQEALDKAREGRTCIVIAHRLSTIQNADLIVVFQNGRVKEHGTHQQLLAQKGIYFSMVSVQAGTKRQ

ABCG2 = biological target: T2, ABCG2 (Homo sapiens, UniProt Q9UNQ0); test: biochemical
T2 sequence (Q9UNQ0 1-655): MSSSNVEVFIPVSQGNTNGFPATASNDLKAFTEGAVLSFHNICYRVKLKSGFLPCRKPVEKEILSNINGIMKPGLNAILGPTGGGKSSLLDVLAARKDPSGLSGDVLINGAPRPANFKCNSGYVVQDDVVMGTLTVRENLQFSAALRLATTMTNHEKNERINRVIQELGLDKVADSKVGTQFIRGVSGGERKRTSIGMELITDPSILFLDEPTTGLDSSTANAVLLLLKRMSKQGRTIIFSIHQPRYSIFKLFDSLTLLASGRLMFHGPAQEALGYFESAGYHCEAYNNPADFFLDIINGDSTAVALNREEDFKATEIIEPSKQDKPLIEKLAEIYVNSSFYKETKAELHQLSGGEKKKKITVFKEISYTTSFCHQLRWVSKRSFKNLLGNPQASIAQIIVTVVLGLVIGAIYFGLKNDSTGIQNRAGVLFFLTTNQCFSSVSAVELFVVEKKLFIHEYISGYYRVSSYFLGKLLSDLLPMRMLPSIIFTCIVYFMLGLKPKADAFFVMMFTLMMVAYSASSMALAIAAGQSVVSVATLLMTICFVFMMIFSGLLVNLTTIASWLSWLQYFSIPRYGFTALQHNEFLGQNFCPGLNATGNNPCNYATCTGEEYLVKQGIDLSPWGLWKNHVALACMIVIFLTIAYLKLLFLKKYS

CC(C)(CNC(=O)c1cccc(-c2noc(C(F)(F)F)n2)c1)c1coc(-c2ccccc2)n1 [TMP195]
EC50 (ABCB1): ~2 µM
EC50 (ABCG2): ~0.4 µM
